Test results: paper PMC7156736, “Phase 1 study of the pan-HER inhibitor dacomitinib plus the MEK1/2 inhibitor PD-0325901 in patients with KRAS-mutation-positive colorectal, non-small-cell lung and pancreatic cancer” (British Journal of Cancer, 2020)
Where two headings read alike, the source gives them in different places.

How the values were obtained:
HER2 = conditions: human catalytic domain of HER2; read-out: in vitro IC50; cited from earlier work
[1] = plasma pharmacokinetics in patients (HPLC–MS/MS, non-compartmental analysis); type: in vivo, human; conditions: for AUC(0-t) / Cmax / Tmax: human, plasma, oral; for AUC(0-t): read-out: AUC0-24h dacomitinib, mean (CV%); for Cmax: read-out: Cmax dacomitinib, mean (CV%); for Tmax: read-out: tmax dacomitinib, mean
Protocol: For pharmacokinetic analyses, serial blood samples were obtained from all patients prior to treatment administration on day 1, and 1, 2, 3, 4, 6, 8, 12, 24, 72 and 144 h after the first dose. On day 1 of cycle 2, blood samples were drawn before and 1, 2, 3, 4, 6, 8, 12 and 24 h after administration. Plasma samples were assayed using a validated high-performance liquid chromatography– tandem mass spectrometry method (HPLC–MS/MS). Briefly, dacomitinib and PD-0325901 were extracted from plasma by protein precipitation with a mixture of acetonitrile/methanol (1:1 v/v). Compounds were chromatographically separated using a Waters Xbridge BEH Phenyl column (50 ×2.1-mm ID, 5-μm particle size), and detection was performed using an API4000 tandem mass spectrometer equipped with a turbo ion spray interface, operating in the positive ion mode. Transitions from m/z 480 to 329 and m/z 489 to 255 were monitored for the detection of dacomitinib and PD-0325901, respectively. Stable isotope-labelled internal standards were used for the quantification. The lower and upper limits of quantification were, respectively, 0.5 and 50 ng/ml for dacomitinib, and 5 and 500 ng/ml for PD-0325901. Pharmacokinetic parameters were calculated in R using an in-house-developed validated script for non-compartmental pharmacokinetic analyses (version 3.6.0).[9]

HER4 = conditions: human catalytic domain of HER4; read-out: in vitro IC50; cited from earlier work
HER1 = conditions: human catalytic domain of HER1; read-out: in vitro IC50; cited from earlier work
[2] = system: patients with KRASm CRC, NSCLC or pancreatic cancer; type: in vivo; conditions: dacomitinib QD continuous, PD-0325901 BID 21 days on/7 days off
Text: . The starting doses were based on previous data from single-agent Phase 1 studies with both compounds, taking into account the potential for synergistic toxicity. […]. Dose-escalation decisions were based on safety evaluation of all evaluable patients, performed after completion of the first treatment cycle. Patients were considered evaluable for the dose-determining part of this study if at least one cycle of study treatment was completed, with the minimum safety evaluation conducted, and at least one administration of both drugs received, or if dose-limiting toxicity (DLT) had occurred during the first cycle. If one out of three patients experienced a DLT, the number of patients treated at that dose level was expanded to a maximum of six. […] Patients were continuing study treatment until disease progression, unacceptable toxicity or investigator/patient decision to discontinue.
Safety was monitored throughout the treatment by physical examination, laboratory assessments, electrocardiography, ophthalmic evaluation and collection of adverse events. Adverse events were recorded according to the Common Terminology Criteria for Adverse Events version 4.0. All adverse events that were possible, probable or definite related to study drug were considered as study/treatment related. […]

HER2/HER3 = system: HER2/HER3; set-up: method as in unpublished data; conditions: ref unpublished data; cited from earlier work
[3] = 15 mg, All 15 mg doses, Cycle 1 Day 1, n = 23
[4] = 15 mg, All 15 mg doses, Cycle 2 Day 1, n = 18
[5] = 30 mg, All 30 mg doses, Cycle 1 Day 1, n = 17
[6] = 30 mg, All 30 mg doses, Cycle 2 Day 1 or last day of concomitant use, n =11
[7] = Dose-level 1: dacomitinib 30 mg QD + PD-0325901 2 mg BID, Cycle 1 Day 1, n = 6
[8] = Dose-level 1: dacomitinib 30 mg QD + PD-0325901 2 mg BID, Cycle 2 Day 1, n = 6
[9] = Dose-level 2: dacomitinib 15 mg QD + PD-0325901 3 mg BID, Cycle 1 Day 1, n = 6
[10] = Dose-level 2: dacomitinib 15 mg QD + PD-0325901 3 mg BID, Cycle 2 Day 1, n = 5
[11] = Dose-level 3: dacomitinib 15 mg QD + PD-0325901 4 mg BID, Cycle 1 Day 1, n = 2
[12] = Dose-level 3: dacomitinib 15 mg QD + PD-0325901 4 mg BID, Cycle 2 Day 1, n = 2
[13] = Dose-level 4: dacomitinib 15 mg QD + PD-0325901 5 mg BID, Cycle 1 Day 1, n = 3
[14] = Dose-level 4: dacomitinib 15 mg QD + PD-0325901 5 mg BID, Cycle 2 Day 1, n = 3
[15] = Dose-level 5: dacomitinib 15 mg QD + PD-0325901 6 mg BID, Cycle 1 Day 1, n = 8
[16] = Dose-level 5: dacomitinib 15 mg QD + PD-0325901 6 mg BID, Cycle 2 Day 1, n = 5
[17] = Dose-level 6: dacomitinib 30 mg (4/3) QD + PD-0325901 6 mg BID, Cycle 1 Day 1, n = 3
[18] = Dose-level 6: dacomitinib 30 mg (4/3) QD + PD-0325901 6 mg BID, last day of concomitant use of both drugs, n = 1
[19] = Dose-level 7: dacomitinib 30 mg (5/2) QD + PD-0325901 6 mg (5/2) BID, Cycle 1 Day 1, n = 3
[20] = Dose-level 7: dacomitinib 30 mg (5/2) QD + PD-0325901 6 mg (5/2) BID, last day of concomitant use of both drugs, n = 2
[21] = Dose-level 8: dacomitinib 30 mg (5/2) QD + PD-0325901 5 mg (5/2) BID, Cycle 1 Day 1, n = 5
[22] = Dose-level 8: dacomitinib 30 mg (5/2) QD + PD-0325901 5 mg (5/2) BID, last day of concomitant use of both drugs, n=2
[23] = Dose-level -1: dacomitinib 15 mg QD + PD-0325901 2 mg BID, Cycle 1 Day 1, n = 4
[24] = Dose-level -1: dacomitinib 15 mg QD + PD-0325901 2 mg BID, Cycle 2 Day 1, n = 3

In the case of `COc1cc2ncnc(Nc3ccc(F)c(Cl)c3)c2cc1NC(=O)/C=C/CN1CCCCC1` [dacomitinib], the IC50 (HER2) is listed as 45.7 nM, the “plasma concentration versus preclinical target of 22 ng/ml” value ([1]; 15 mg dacomitinib doses, for a substantial number of patients) is listed as “did not exceed the preclinical target” and the “increase of exposure with dose” value ([1]; across dose levels) is listed as “approximately dose-proportionally”. For the same compound, the AUC(0-t) [1, 3] was 122 ng·h/mL, the Cmax [1, 3] was 8.6 ng/mL and the Tmax [1, 3] was 7.6 h. The AUC(0-t) [1, 4] was 616 ng·h/mL, the Cmax [1, 4] was 31.2 ng/mL and the Tmax [1, 4] was 7.2 h. It also gave an AUC(0-t) [1, 5] of 250 ng·h/mL, a Cmax [1, 5] of 16 ng/mL and a Tmax [1, 5] of 8.3 h. The AUC(0-t) [1, 6] was 909 ng·h/mL, the Cmax [1, 6] was 51.7 ng/mL and the Tmax [1, 6] was 4.8 h. For the same compound, the AUC(0-t) [1, 7] was 318 ng·h/mL, the Cmax [1, 7] was 19.2 ng/mL and the Tmax [1, 7] was 7.5 h. It also gave an AUC(0-t) [1, 8] of 888 ng·h/mL, a Cmax [1, 8] of 47.4 ng/mL and a Tmax [1, 8] of 7.6 h. The AUC(0-t) [1, 9] was 112 ng·h/mL, the Cmax [1, 9] was 6.7 ng/mL and the Tmax [1, 9] was 8.7 h. For the same compound, the AUC(0-t) [1, 10] was 549 ng·h/mL, the Cmax [1, 10] was 26 ng/mL and the Tmax [1, 10] was 9.6 h. For the same compound, the AUC(0-t) [1, 11] was 45 ng·h/mL, the Cmax [1, 11] was 2.5 ng/mL and the Tmax [1, 11] was 12 h. The AUC(0-t) [1, 12] was 262 ng·h/mL, the Cmax [1, 12] was 25.7 ng/mL and the Tmax [1, 12] was 2 h. It also gave an AUC(0-t) [1, 13] of 137 ng·h/mL, a Cmax [1, 13] of 8.5 ng/mL and a Tmax [1, 13] of 4.7 h. For the same compound, the AUC(0-t) [1, 14] was 654 ng·h/mL, the Cmax [1, 14] was 33.5 ng/mL and the Tmax [1, 14] was 5 h. For the same compound, the AUC(0-t) [1, 15] was 136 ng·h/mL, the Cmax [1, 15] was 11.4 ng/mL and the Tmax [1, 15] was 7.9 h. For the same compound, the AUC(0-t) [1, 16] was 747 ng·h/mL, the Cmax [1, 16] was 37.3 ng/mL and the Tmax [1, 16] was 4.4 h. The AUC(0-t) [1, 17] was 159 ng·h/mL, the Cmax [1, 17] was 11.1 ng/mL and the Tmax [1, 17] was 7.3 h. For the same compound, the AUC(0-t) [1, 18] was 647 ng·h/mL, the Cmax [1, 18] was 32 ng/mL and the Tmax [1, 18] was 8 h. For the same compound, the AUC(0-t) [1, 19] was 290 ng·h/mL, the Cmax [1, 19] was 19.1 ng/mL and the Tmax [1, 19] was 13.3 h. For the same compound, the AUC(0-t) [1, 20] was 658 ng·h/mL, the Cmax [1, 20] was 37.5 ng/mL and the Tmax [1, 20] was 4.5 h. It also gave an AUC(0-t) [1, 21] of 200 ng·h/mL, a Cmax [1, 21] of 14.2 ng/mL and a Tmax [1, 21] of 6.6 h. The AUC(0-t) [1, 22] was 789 ng·h/mL, the Cmax [1, 22] was 55.9 ng/mL and the Tmax [1, 22] was 4.5 h. The AUC(0-t) [1, 23] was 126 ng·h/mL, the Cmax [1, 23] was 7.9 ng/mL and the Tmax [1, 23] was 5.6 h. For the same compound, the AUC(0-t) [1, 24] was 513 ng·h/mL, the Cmax [1, 24] was 26.3 ng/mL and the Tmax [1, 24] was 11 h. For the same compound, the “increase of mean Cmax and AUC0–24h after multiple dosing (accumulation)” value ([1]; patients, combination treatment) was 3- to 5 fold, the IC50 (HER4) was 74 nM and the IC50 (HER1) was 6 nM. For the same compound, the “recommended Phase 2 dose (RP2D) / established maximum dose level in the combination with continuous dacomitinib dosing” value [2] was 15 mg and the “IC50 for HER2/HER3 inhibition (preclinical target plasma concentration)” value (HER2/HER3) was 0.022 µg/mL.
